Series [1] can be described thus: Comparative pharmacokinetic study, single-dose administration in mice. Type of series: in vivo. As to conditions: for AUC(0-t) / Cmax at 24 h / clearance at 24 h / half-life at 24 h / CL/F at 24 h: male, CD1, mouse, plasma, single dose; for decrease of the area under the curve (AUC) versus doxophylline: oral administration. The protocol:
A comparative pharmacokinetic study was then performed by evaluating the plasma concentration profiles of doxophylline and its deuterated analogues after intravenous and oral single-dose administration in mice and minipigs. […] Since the deuterium kinetic isotope effect is often affected by interspecies variability,[28] a PK study was also performed in minipigs. […] A total of 96 CD1 male mice, approximately 6 weeks old and with a body weight of approximately 30 g, were purchased from Envigo RMS srl, (San Pietro al Natisone, UD, Italy). Four males Göttingen minipigs approximately 4-5 months old and weighing 9-11 Kg were purchased from Ellegaard Göttingen Minipigs (Dalmose, Denmark). Protocol for drug administration and blood sampling. Mice. Blood samples were collected under light isoflurane anaesthesia from the sublingual vein at the following time points (n=3): pre-dose and 5, 15, 30 minutes, 1, 2, 4, 8 and 24 hours after i.v. dosing (20 mg/Kg, dose volume 5 mL/Kg) and pre-dose and 15, 30 minutes, 1, 2, 4, 8 and 24 hours after oral gavage dosing (80 mg/Kg, dose volume 5 mL/Kg). Each animal was sampled on each day at a maximum of two alternating time points. Samples were transferred into tubes containing K3EDTA as anticoagulant, centrifuged, and stored at -80 °C. Minipig. Blood samples were collected from the jugular vein at the following time points (n=4): pre-dose and 5, 15, 30 minutes, 1, 2, 4, 8 and 24 hours after i.v. dosing (5 mg/Kg, dose volume 1 mL/Kg) and pre-dose and 15, 30 minutes, 1, 2, 4, 8 and 24 hours after oral gavage dosing (20 mg/Kg, dose volume 4 mL/Kg). Samples were transferred into tubes containing K3EDTA as anticoagulant, centrifuged, and stored at -80 °C. Sample preparation for HPLC-MS analysis. A volume of 50 µL of caffeine solution (1 mg/L in water-methanol 1:1) were added to plasma sample aliquots (50 µL); after the addition of the precipitant solution (100 µL of 10% ice-cold trichloroacetic acid in water), samples were centrifuged at 13,000 rpm for ten minutes and the supernatant injected onto the HPLC system (see supporting information for chromatographic conditions). If the levels of analytes were over range, plasma samples were preventively diluted with blank plasma. Data analysis. Quantification of doxophylline and its deuterated analogues d4 and d7 as well as their main metabolites, 7- theophylline acetic acid (T-COOH), 7-hydroxyethyl theophylline (Eto) and theophylline, was performed by using the calibration curves obtained with the corresponding working standards of the analytes and using caffeine as internal standard. The pharmacokinetic parameters for doxophylline and its deuterated analogues were calculated by plotting the plasma concentration curves versus time obtained from the average values of three animals, using PK Solver 2.0.1 S7

A short description of series [2]: Levels of doxophylline metabolites in mice plasma. Type of series: in vivo. The text has this: From an analysis of the levels of metabolites in mice plasma, it was seen that deuteration of the dioxolane ring (d4-doxophylline) triggered considerable alterations in the relative abundances of the metabolites generated. […] This is mainly related to a marked increase of the metabolic route 2, in which the electronic influence of the two oxygen atoms adjacent to the target sp^3 carbon atom greatly facilitates oxene attack and homolytic cleavage of the C–H bond.[29]
With regard to d7-doxophylline, only a semiquantitative determination was feasible because its metabolites (with the exception of theophylline) retain deuterium atoms (see the Supporting Information for structures). Indeed, the presence of deuterium lowers the signals in the electrospray ionization source, and the corresponding deuterated standards of the metabolites would have been necessary to perform an accurate quantification. Moreover, no reference standard was available for the quantification of the metabolites dm-doxophylline 9 and dh-doxophylline 10, and their relative abundances were expressed as peak areas of the corresponding accurate-mass ions.
• Comparative pharmacokinetic study
A total of 96 CD1 male mice, approximately 6 weeks old and with a body weight of approximately 30 g, were purchased from Envigo RMS srl, (San Pietro al Natisone, UD, Italy). […]
Protocol for drug administration and blood sampling.
Blood samples were collected under light isoflurane anaesthesia from the sublingual vein at the following time points (n=3): pre-dose and 5, 15, 30 minutes, 1, 2, 4, 8 and 24 hours after i.v. dosing (20 mg/Kg, dose volume 5 mL/Kg) and pre-dose and 15, 30 minutes, 1, 2, 4, 8 and 24 hours after oral gavage dosing (80 mg/Kg, dose volume 5 mL/Kg). Each animal was sampled on each day at a maximum of two alternating time points.
Samples were transferred into tubes containing K3EDTA as anticoagulant, centrifuged, and stored at -80 °C. […] Sample preparation for HPLC-MS analysis.
A volume of 50 µL of caffeine solution (1 mg/L in water-methanol 1:1) were added to plasma sample aliquots (50 µL); after the addition of the precipitant solution (100 µL of 10% ice-cold trichloroacetic acid in water), samples were centrifuged at 13,000 rpm for ten minutes and the supernatant injected onto the HPLC system (see supporting information for chromatographic conditions). If the levels of analytes were over range, plasma samples were preventively diluted with blank plasma.
Quantification of doxophylline and its deuterated analogues d4 and d7 as well as their main metabolites, 7-theophylline acetic acid (T-COOH), 7-hydroxyethyl theophylline (Eto) and theophylline, was performed by using the calibration curves obtained with the corresponding working standards of the analytes and using caffeine as internal standard.
The pharmacokinetic parameters for doxophylline and its deuterated analogues were calculated by plotting the plasma concentration curves versus time obtained from the average values of three animals, using PK Solver

Molecules are shown by their SMILES.

A word on the AUC(0-t): it is exposure summed from dosing to a finite time, without extrapolation to infinity. Read a low AUC(0-t) as less exposure. The Cmax is the maximum level reached in the sampled fluid or tissue. Broadly, the clearance is the rate of elimination divided by the concentration. A high value points to efficient removal. As a reminder, the half-life is the time in which the quantity being followed falls by half. Higher therefore signals slow loss. Usually CL/F stands for clearance divided by bioavailability, as obtained after extravascular dosing. In series [1] (intravenous, 20 mg/kg), `[2H]C1([2H])OC(Cn2cnc3c2c(=O)n(C)c(=O)n3C)OC1([2H])[2H]` [d4-doxophylline] showed an AUC(0-t) of 5410 ng·h/mL, a Cmax at 24 h of 12300 ng/mL, a clearance at 24 h of 61.7 mL/min/kg and a half-life at 24 h of 1.5 h. In series [1] (oral, 80 mg/kg), the exposure AUC(0-t) is 31400 ng·h/mL, the CL/F at 24 h was 41.7 mL/min/kg, the concentration peaked (Cmax at 24 h) at 16800 ng/mL and the half-life at 24 h was 1.7 h. Further, in series [1], the “decrease of the area under the curve (AUC) versus doxophylline” value came to 44%. In addition, in series [2], the “level of metabolite etophylline 7 versus doxophylline” value was “decreased level” and the “plasmatic level of metabolite theophylline 1 versus doxophylline” value was “significant increase”. For the same molecule, in series [2] (peak area), the “level of dehydrogenated metabolite dh-doxophylline 10 versus doxophylline” value is given as “decrease” and the “plasmatic level of metabolite dm-doxophylline 9 versus doxophylline” value is on record as “significant increase”.

Regarding `[2H]C1([2H])OC([2H])(C([2H])([2H])n2cnc3c2c(=O)n(C)c(=O)n3C)OC1([2H])[2H]` [d7-doxophylline], in series [1] (intravenous, 20 mg/kg), the AUC(0-t) stood at 4920 ng·h/mL, the Cmax at 24 h turned out to be 10700 ng/mL, the clearance at 24 h is 68.3 mL/min/kg and the half-life at 24 h was 1 h. In series [1] (oral, 80 mg/kg), this molecule showed an AUC(0-t) of 33600 ng·h/mL, an apparent clearance CL/F at 24 h of 40 mL/min/kg, a Cmax at 24 h of 19200 ng/mL and a half-life at 24 h of 2.1 h. Besides, the “decrease of the area under the curve (AUC) versus doxophylline” value in series [1] is on record as 40%. Also, the “levels of all metabolites except dm-doxophylline 9 versus doxophylline” value in series [2] (semiquantitative determination) was “diminished levels”.

With `Cn1c(=O)c2c(ncn2CC2OCCO2)n(C)c1=O` [doxophylline], in series [1] (intravenous, 20 mg/kg), the AUC(0-t) worked out at 6730 ng·h/mL, the highest level (Cmax at 24 h) was 15500 ng/mL, the clearance at 24 h is 48.3 mL/min/kg and the half-life at 24 h was 1.1 h. In series [1] (oral, 80 mg/kg), this molecule had an AUC(0-t) of 55900 ng·h/mL, a CL/F at 24 h of 23.3 mL/min/kg, a Cmax at 24 h of 18700 ng/mL and a half-life at 24 h of 1.6 h.

The values are drawn from PMC9377007, “An Unexpected Deuterium-Induced Metabolic Switch in Doxophylline” (ACS Medicinal Chemistry Letters, 2022).
